Data: patent publication US20100278730A1, “Non-Invasive Molecular Imaging of Cellular Histone Deacetylase Substrate Using Magnetic Resonance Spectroscopy (MRS) or Positron Emission Tomography (PET)” (priority 2007, published 2010)

How the values were obtained:
[1] = test system: HDACs 1-11; experiment: HDAC fluorimetric assay; type: biochemical; settings: for histone deacetylase activity in the presence of the substrate: FIG. 21, BPS#3 as control
Description: Material: Assay buffer, Assay developer, HDAC substrate
(§1) Source: BPS Bioscience, Inc.
Add reaction mixtures to low binding black plate. These include: HDAC assay buffer, Bovine serum albumin solution, HDAC substrate, and HDAC enzymes.
Incubate at 37° C. for 30 minutes.
(§2) Stop the reaction by addition of HDAC Assay developer (2×) and incubate plate at room temperature for 15 minutes.
(§3) Read sample in a microtiter-plate reading fluorimeter at excitation wavelength in the range of 350-380 nm and detect in emission range of 440-460 nm.

[2] = test system: sirtuins 1-5; experiment: Sirtuin fluorimetric assay; type: biochemical
Description: Sirtuin Fluorimetric Assay
Material: substrate available from manufacturer
as §1
Add reaction mixtures to low binding black plate. These include: Sirtuin, HDAC assay buffer, Bovine serum albumin solution, NAD+ solution and Sirtuin substrate.
Incubate at 37° C. for 30 minutes
as §2, §3

[3] = test system: MDA-MB435 human breast carcinoma cells; experiment: In vitro uptake study of [18F]-FAHA in human breast carcinoma cell line; type: cell-based
Description: MDA-MB435 human breast carcinoma cells were grown into flasks with D-MEM/F-12 medium supplemented with 10% FBS and antibiotics at 37° C. in humidified atmosphere with 5% CO2. Cells were kept in the log phase proliferative activity. 5×10^6 of cells in 15 mL of medium were distributed into each tissue culture dish and were incubated at least for 24 hours.
Next day, culture medium was replaced to fresh medium again and was incubated for 3 hours. Then […] of [^18F]-FAHA in […] of saline was added to each dish followed by incubation for 5, 10, 15, 30, 60, and 120 min. At each time point, cells were scraped and were centrifuged at 3,000 rpm for 1 min. After centrifugation, […] of supernatant medium and cells were weighed and their radioactivity measured using a gamma counter. Then the ratio of radioactivity between 1 gram of cells and 1 gram of medium was calculated.
For an inhibition study, cells were incubated in medium with […] of SAHA from 1 hour before adding [^18F]-FAHA.

[4] = test system: MB435 tumor xenografts; experiment: PET of [18F]-FAHA in MB435 tumor xenograft-bearing nude rats (second Example 4); type: in vivo, rat
Description: Methods: [^18F]-FAHA was synthesized with high specific activity according to a method developed at M. D. Anderson Cancer Center. Human breast cancer cells, cell line MB435, grown as described in Example 3, were used to grow tumor xenografts in nude rats. Ten million cancer cells were injected subcutaneously in the neck area of six nude rats. When tumors were 1 cm in diameter, animals were anesthetized, injected with [^18F]-FAHA (37 MBq) and PET imaging was performed (dynamic) up to 60 min post-injection. Two days after the initial imaging, another PET imaging with [^18F]-FAHA was performed using a […] (SAHA). The animals were given SAHA (50 mg/kg) intraperitoneally 1 hour prior to injection of the radiotracer.

[5] = test system: MB435 human breast carcinoma tumor; experiment: PET of [18F]-FAHA in MB435 carcinoma-bearing nu/nu rats, with Gjedde-Patlak analysis (Example 5); type: in vivo, rat
Description: MB435 human breast carcinoma cells were grown as described in Example 3, above. About 10×10^6 MB435 cells were injected subcutaneously in female nu/nu rat. When tumor size was 15 mm in diameter, PET imaging studies with [^18F]-FAHA were conducted in five rats using microPET R4 (Concorde). The animals were injected intravenously with […] (1mCi) of [^18F]-FAHA and dynamic scanning (0-60 min) was performed. During the imaging session the rats were anesthetized with 2.0 vol % isoflurane/oxygen inhalation and continuously heated with a heating lamp.
Two days after the initial study, another [^18F]-FAHA PET imaging with an […] (SAHA) was performed. The animals were given SAHA (100 mg/kg) intraperitoneally 1 hour prior to injection of the [^18F]-FAHA.
Both a Gjedde-Patlak plot and a Logan plot were taken. […] The linearity of the plot was checked and a plasma/reference region used as an input. […]

[6] = test system: HDAC activity in rat brain; experiment: PET imaging of HDAC activity in rat brain using [18F]-FAHA (Example 6); type: in vivo
Description: Methods: [^18F]-FAHA was synthesized according to the methods developed in our laboratory in high specific activity. Imaging studies with [^18F]-FAHA were conducted in five rats using a PET scanner under isoflurane inhalation anesthesia. The animals were injected intravenously with 37 MBq of [^18F]-FAHA and dynamic scanning PET (0-60 min) was performed. During the imaging session, the rats were anesthetized with 1-1.5 vol % isoflurane/oxygen inhalation and continuously heated with a heating lamp. Two days after the initial study, another PET imaging was performed with [^18F]-FAHA using an […] (SAHA). Each animal was given SAHA (50 mg/kg), intraperitoneally 1 hour prior to injection of the [^18F]-FAHA.
In Table 6, “baseline” refers to brain uptake of FAHA without blocking by SAHA.

[7] = 30 min post-injection, with SAHA 50 mg/kg i.p. 1 hour prior
[8] = 30 min post-injection, without SAHA
[9] = 60 min post-injection, with SAHA 50 mg/kg i.p. 1 hour prior
[10] = 60 min post-injection, without SAHA
[11] = during 60 min post-injection, without SAHA
[12] = 5 min post-injection, without SAHA

With `O=C(CCCCCNC(=O)C(F)(F)F)Nc1ccccc1` [3FAHA, 6-(trifluoroacetamido)-1-hexanoicanilide] as the molecule, how does the “qualitative rank of the specificity of various HDACs for the substrate” value [1] read?
Its value is “HDAC-9>HDAC-7>HDAC-5>HDAC-8>HDAC-4>HDAC-11”.

Which “qualitative rank of the specificity of various HDACs for the substrate” value [1] does the source give for `O=C(CF)NCCCCCC(=O)Nc1ccccc1` [FAHA, 6-(fluoroacetamido)-1-hexanoicanilide] here?
The value was “HDAC-9>HDAC-5>HDAC-8>HDAC-4>HDAC-6>HDAC-1”.

Which results are given for `CC(C)CC(=O)NCCCCCC(=O)Nc1ccccc1` [Iso-PAHA, 6-(isopropylacetamido)-1-hexanoicanilide]?
histone deacetylase activity in the presence of the substrate [1]: inhibited the activity of all HDACs; qualitative rank of the specificity of various sirtuins (and HDAC-3) for the substrate [2]: Sirt-2>Sirt-5>Sirt-4>Sirt-3>Sirt-1

With `CCCC(=O)NCCCCCC(=O)Nc1ccccc1` [PAHA, 6-(ethylacetamido)-1-hexanoicanilide] as the molecule, how does the “histone deacetylase activity in the presence of the substrate” value [1] read?
The value was “inhibited the activity of all HDACs”.

What about the “qualitative rank of the specificity of various sirtuins (and HDAC-3) for the substrate” value [2] of the same molecule?
Its value is “Sirt-2>Sirt-5>Sirt-4>Sirt-3>Sirt-1 >>HDAC-3”.

Which “histone deacetylase activity in the presence of the substrate” value [1] does the source give for `O=C(Cc1ccccc1)NCCCCCC(=O)Nc1ccccc1` [PhAHA, 6-(phenylacetamido)-1-hexanoicanilide] here?
The value was “inhibited the activity of all HDACs”.

And the “qualitative rank of the specificity of various sirtuins (and HDAC-3) for the substrate” value [2]?
Its value is “Sirt-2 >>Sirt-3>Sirt-4>Sirt-5>Sirt-1”.

`O=C(C[18F])NCCCCCC(=O)Nc1ccccc1` [[^18F]-FAHA, 6-([^18F]-fluoroacetamide)-1-hexanoicanilide] was tested. Which “ratio of radioactivity between 1 gram of cells and 1 gram of medium” value (shortened to “ratio … of medium”) ([3]; Baseline, 5 min) did it give?
Its value is 1.95 +/− 0.13.

And the “ratio … of medium” value ([3]; Baseline, 10 min)?
The value was 2.09 +/− 0.15.

What about the “ratio … of medium” value ([3]; Baseline, 15 min) of the same molecule?
The value was 2.11 +/− 0.12.

What about the “ratio … of medium” value ([3]; Baseline, 30 min) of the same molecule?
Its value is 2.02 +/− 0.11.

What about the “ratio … of medium” value ([3]; Baseline, 60 min) of the same molecule?
The value was 1.84 +/− 0.14.

What about the “ratio … of medium” value ([3]; Baseline, 120 min) of the same molecule?
Its value is 1.38 +/− 0.12.

What about the “ratio … of medium” value ([3]; Inhibition: 10 mM of SAHA from 1 hour before [18F]-FAHA, 5 min) of the same molecule?
The value was 1.16 +/− 0.03.

What about the “ratio … of medium” value ([3]; Inhibition: 10 mM of SAHA from 1 hour before [18F]-FAHA, 10 min) of the same molecule?
Its value is 1.16 +/− 0.01.

What about the “ratio … of medium” value ([3]; Inhibition: 10 mM of SAHA from 1 hour before [18F]-FAHA, 15 min) of the same molecule?
The value was 1.16 +/− 0.03.

And the “ratio … of medium” value ([3]; Inhibition: 10 mM of SAHA from 1 hour before [18F]-FAHA, 30 min)?
The value was 1.16 +/− 0.04.

And the “ratio … of medium” value ([3]; Inhibition: 10 mM of SAHA from 1 hour before [18F]-FAHA, 60 min)?
Its value is 1.15 +/− 0.01.

And the “ratio … of medium” value ([3]; Inhibition: 10 mM of SAHA from 1 hour before [18F]-FAHA, 120 min)?
Its value is 1.13 +/− 0.02.

And the Tumor uptake [4, 7]?
The Tumor uptake was 0.70 ± 0.04 % ID/g.

What about the “tumor-to-muscle (T/M) ratio” value [4, 7] of the same molecule?
Its value is 1.52 ± 0.13.

And the Tumor uptake [4, 8]?
Its Tumor uptake is 0.78 ± 0.13 % ID/g.

And the “tumor-to-muscle (T/M) ratio” value [4, 8]?
Its value is 1.80 ± 0.17.

What about the Tumor uptake [4, 9] of the same molecule?
The Tumor uptake was 0.71 ± 0.02 % ID/g.

And the “tumor-to-muscle (T/M) ratio” value [4, 9]?
Its value is 1.64 ± 0.10.

What about the Tumor uptake [4, 10] of the same molecule?
Its Tumor uptake is 0.79 ± 0.13 % ID/g.

What about the “tumor-to-muscle (T/M) ratio” value [4, 10] of the same molecule?
Its value is 1.95 ± 0.19.

And the tumor uptake achieved [4, 11]?
The tumor uptake achieved was “approximately 0.8 % injected dose (ID)/g”.

What about the “tumor-to muscle ratio reached” value [4, 11] of the same molecule?
Its value is 1.95.

What about the Tumor-to-muscle uptake ratio ([5]; Baseline, 5 min) of the same molecule?
The Tumor-to-muscle uptake ratio was 2.01 +/− 0.57.

And the Tumor-to-muscle uptake ratio ([5]; Baseline, 10 min)?
The Tumor-to-muscle uptake ratio was 2.05 +/− 0.76.

What about the Tumor-to-muscle uptake ratio ([5]; Baseline, 15 min) of the same molecule?
The Tumor-to-muscle uptake ratio was 2.08 +/− 0.83.

And the Tumor-to-muscle uptake ratio ([5]; Baseline, 30 min)?
Its Tumor-to-muscle uptake ratio is 2.20 +/− 0.95.

What about the Tumor-to-muscle uptake ratio ([5]; Baseline, 60 min) of the same molecule?
The Tumor-to-muscle uptake ratio was 2.38 +/− 1.11.

What about the Tumor-to-muscle uptake ratio ([5]; Inhibition: SAHA 100 mg/kg i.p. 1 hour prior, 5 min) of the same molecule?
Its Tumor-to-muscle uptake ratio is 1.43 +/− 0.15.

And the Tumor-to-muscle uptake ratio ([5]; Inhibition: SAHA 100 mg/kg i.p. 1 hour prior, 10 min)?
Its Tumor-to-muscle uptake ratio is 1.50 +/− 0.15.

And the Tumor-to-muscle uptake ratio ([5]; Inhibition: SAHA 100 mg/kg i.p. 1 hour prior, 15 min)?
Its Tumor-to-muscle uptake ratio is 1.46 +/− 0.16.

And the Tumor-to-muscle uptake ratio ([5]; Inhibition: SAHA 100 mg/kg i.p. 1 hour prior, 30 min)?
The Tumor-to-muscle uptake ratio was 1.47 +/− 0.12.

What about the Tumor-to-muscle uptake ratio ([5]; Inhibition: SAHA 100 mg/kg i.p. 1 hour prior, 60 min) of the same molecule?
The Tumor-to-muscle uptake ratio was 1.47 +/− 0.11.

And the Brain uptake ([6]; 5 min post-injection, with SAHA 50 mg/kg i.p. 1 hour prior)?
Its Brain uptake is 0.33 ± 0.05 % ID/g.

And the Brain uptake [6, 12]?
Its Brain uptake is 0.44 ± 0.03 % ID/g.

What about the “brain-to-muscle (B/M) ratio” value [6, 12] of the same molecule?
Its value is 2.56 ± 0.33.

And the Brain uptake [6, 9]?
Its Brain uptake is 0.23 ± 0.04 % ID/g.

And the “brain-to-muscle (B/M) ratio” value [6, 9]?
Its value is 1.03 ± 0.08.

And the Brain uptake [6, 10]?
The Brain uptake was 0.40 ± 0.03 % ID/g.

What about the “brain-to-muscle (B/M) ratio” value [6, 10] of the same molecule?
The value was 2.10 ± 0.63.

What about the “brain-to muscle ratio reached” value ([6]; at 5 min post-injection, without SAHA) of the same molecule?
The value was 1.95.

And the brain uptake reached ([6]; without SAHA)?
The brain uptake reached was 0.44 % injected dose/g.
